Assay results as given in patent US20250205194A1, “COMPOSITION CONTAINING L-ASCORBIC ACID DL-a-TOCOPHEROL PHOSPHORIC ACID DIESTER ALKALI METAL SALT” (SUNSTAR INC., priority 2022, published 2025).

Assays:
[1] = tested on: oral cavity-derived epithelial cell line (Ca9-22 cells); experiment: Cytotoxicity evaluation test (WST-1); type: cell-based; details: surfactant final concentration 1%, 10 minutes at room temperature, FIGS. 6 and 7
Procedure: An oral cavity-derived epithelial cell line (Ca9-22 cells) was cultured in a 96-well plate to confluency.
Evaluation solutions were prepared using PBS containing 0.5% DMSO as a solvent so that the final concentration of each surfactant was 1%. The surfactants used were polyoxyethylene (9) lauryl ether, polyoxyethylene (20) cetyl ether, polyoxyethylene (20) stearyl ether, polyoxyethylene (10) octylphenyl ether, polyoxyethylene glycol monolaurate, sorbeth-60 tetraoleate, diethyl sebacate, and polyoxyethylene (10) hydrogenated castor oil.
100 μl of each prepared evaluation solution was individually added to the cultured Ca9-22 cells and allowed to stand for 10 minutes at room temperature. After 10 minutes, washing was performed three times with 200 μl of PBS, a WST-1 reagent (Takara Bio Inc.) was added, and a reaction was allowed to proceed for 30 minutes. After the reaction, the absorbance at 450 nm and 600 nm was measured, and the absorbance at 600 nm was subtracted from the absorbance at 450 nm. The cell viability was calculated from the value calculated by the subtraction, based on the value obtained when only the solvent was added for the treatment taken as 100%. FIGS. 6 and 7 show the results.

[2] = target: T1, MMP-8 (neutrophil collagenase) (Homo sapiens, UniProt P22894); experiment: MMP activity measurement test, MMP-8 fluorimetric drug discovery kit; type: biochemical; details: reaction with enzyme 37° C. 60 minutes, substrate 20 minutes; FIG. 4
T1 construct: purchased Enzo Life Sciences, Inc. BML-AK415-0001
Procedure: (§1) Evaluation material solutions were prepared by individually adding each evaluation material at the respective concentrations shown in FIGS. 4 and 5 to a solvent in which 5% DMSO was added to the buffer included in each kit below. The evaluation materials used are EPC-K (L-ascorbic acid dl-α-tocopherol phosphoric acid diester potassium salt), VC (ascorbic acid), VEA (tocopherol acetate), and VEN (tocopherol nicotinate).
(§2) MMP-8 (neutrophil collagenase) activity was evaluated using an MMP-8 fluorimetric drug discovery kit (Enzo Life Sciences, Inc., BML-AK415-0001), and MMP-1 (fibroblast collagenase) activity was evaluated using an MMP-1 fluorimetric drug discovery kit (Enzo Life Sciences, Inc., BML-AK405-0001), in the following manner. […]
(§3) The fluorescent substrate included in each kit was diluted 10-fold using the buffer, and added in an amount of 10 μl to each solution after the reaction for 60 minutes. After the addition, a reaction was allowed to proceed at 37° C. for 20 minutes for MMP-8 or at 37° C. for 60 minutes for MMP-1, and the fluorescence intensity (excitation light: 328 nm; emission light: 420 nm) was measured. […] The concentration of each evaluation material in FIGS. 4 and 5 is the concentration at the time of preparing the evaluation material, and the final concentration (concentration at the time of measuring fluorescence intensity) is 1/5 of this concentration value.

[3] = target: T2, MMP-1 (fibroblast collagenase) (Homo sapiens, UniProt P03956); experiment: MMP activity measurement test, MMP-1 fluorimetric drug discovery kit; type: biochemical; details: reaction with enzyme 37° C. 60 minutes, substrate 60 minutes; FIG. 5
T2 construct: purchased Enzo Life Sciences, Inc. BML-AK405-0001
T2 sequence (P03956 100-269 limits assumed): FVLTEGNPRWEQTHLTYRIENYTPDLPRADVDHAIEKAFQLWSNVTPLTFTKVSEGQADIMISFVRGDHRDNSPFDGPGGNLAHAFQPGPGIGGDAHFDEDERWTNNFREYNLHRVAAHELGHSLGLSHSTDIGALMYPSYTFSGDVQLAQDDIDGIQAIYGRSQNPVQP
Procedure: as §1, §2, §3

T1 sequence (P22894 100-262 limits assumed): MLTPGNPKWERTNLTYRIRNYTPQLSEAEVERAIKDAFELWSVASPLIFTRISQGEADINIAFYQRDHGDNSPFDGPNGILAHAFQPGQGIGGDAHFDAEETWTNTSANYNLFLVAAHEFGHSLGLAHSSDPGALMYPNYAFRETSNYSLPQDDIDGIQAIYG

Compound	cytotoxicity in oral cavity-derived cells (cell viability) [1]	inhibition of MMP-8 activity [2]	inhibition of MMP-1 activity [3]
polyoxyethylene (10) hydrogenated castor oil	cytotoxicity was not caused		
polyoxyethylene (20) stearyl ether	cytotoxicity was caused		
polyoxyethylene (20) cetyl ether	cytotoxicity was caused		
polyoxyethylene (9) lauryl ether	cytotoxicity was caused		
polyoxyethylene glycol monolaurate	cytotoxicity was caused		
CCOC(=O)CCCCCCCCC(=O)OCC [diethyl sebacate]	cytotoxicity was not caused		
sorbeth-60 tetraoleate	cytotoxicity was not caused		
polyoxyethylene (10) octylphenyl ether	cytotoxicity was caused		
Cc1c(C)c2c(c(C)c1OP(=O)([O-])OC1=C(O)C(C(O)CO)OC1=O)CCC(C)(CCCC(C)CCCC(C)CCCC(C)C)O2.[K+] (racemic) [EPC-K, L-ascorbic acid dl-α-tocopherol phosphoric acid diester potassium salt]		inhibited MMP activity (MMP-8 and MMP-1) in a concentration-dependent manner	inhibited MMP activity (MMP-8 and MMP-1) in a concentration-dependent manner
